Reference: US20130190370A1, “Novel Tetrahydronaphalene Antagonists to the Thromboxane A2 (TP) Receptor” (The Trustees of the University of Pennsylvania, priority 2010, published 2013)

Assay: in vivo
Details: female, B6C3HF1, mouse, in vivo, ip, 5 mg/kg
Method: One-month old B6C3HF1 female mice were given intraperitoneal injections of compounds at 5 mg/kg. 1 hour after injection, mice were lethally anesthetized with an intraperitoneal injection of ketamine hydrochloride (1 mg/10 g) and xylazine (0.1 mg/10 g) and perfused intracardially with PBS in accordance with protocols approved by the University of Pennsylvania.
Brain samples were homogenized in 10 mM ammonium acetate, pH 5.7 (1:2; w/v) using a handheld sonic homogenizer. Compound from 50 μL of brain homogenate or plasma was extracted with 200 μL acetonitrile, centrifuged, and the supernatant removed for LC/MS/MS analysis. Compounds were detected using multiple reaction monitoring (MRM) of their specific collision-induced ion transitions and quantified using peak areas.
The LC/MS/MS system was comprised of an Agility UPLC, a TQ MS, and controlled using MassLynx software (Waters Corporation, Milford, Mass., USA). Samples were separated on an Aquity BEH C18 column (1.7 μm, 2.1×50 mm) at 35° C. For operation in positive electrospray ionization mode, the mobile phase A was 0.1% (v/v) formic acid, and B was either acetonitrile or methanol with 0.1% (v/v) formic acid. For operation in negative electrospray ionization mode, the mobile phase A was 10 mM ammonium acetate, and B was methanol with 10 mM ammonium acetate, Injections of 5 μL were separated at a flow rate of 0.6 mL/min using a gradient from 5% to 95% B over two minutes followed by wash and re-equilibration steps.
The MS was operated with a desolvation temperature of 450° C. and a source temperature of 150° C. Desolvation and source nitrogen gas flows were 900 L/hr and 50 L/hr, respectively. Collision cell argon gas flow was 0.1 mL/min. Source and analyzer voltages were optimized for each compound using the MassLynx auto tune utility. Compound standards at 1000 ng/mL in 50% acetonitrile were infused at 30 μL/min and combined with flow from the UPLC at 0.6 mL/min and 50% B.
Standard curves were generated from spiked brain homogenate and plasma prepared at 4, 40, 400 and 4000 ng/mL and extracted as above. Peak area was plotted versus concentration and a 1/x weighted linear regression curve was used to quantify the unknowns using the average peak area from triplicate injections,
The following experiments were designed to analyze TP receptor antagonists to determine their relative BBB penetration. The TP receptor antagonists were administered via i.p. injection at 5 mg/kg to normal mice, and brain and plasma compound concentrations were assessed by LC-MS/MS at 1 and 4 hours after dosing.
To examine the blood-brain barrier permeability of these compounds, one-month old B6C3F1 mice were injected at 5 mg/kg and sacrificed 1 hour after injection.

[1] = B/Pfree (unbound drug brain-to-plasma ratio)

`Cc1ccc2c(c1CCC(=O)O)CC[C@@H](NS(=O)(=O)c1ccc(Cl)cc1)C2` [Compound S18886] gave a Kp at 1 h (B/P (brain-to-plasma ratio)) of 0.02, a Kp at 4 h (B/P (brain-to-plasma ratio)) of 0.05 and a Kp at 1 h [1] of 0.04. The Kp at 4 h [1] was 0.08, the concentration at 1 h (Brain) was 42.4 ng/mL and the concentration at 4 h (Brain) was 9 ng/mL. It also gave a concentration at 1 h (Plasma) of 1710 ng/mL and a concentration at 4 h (Plasma) of 190 ng/mL.
